Results taken from ChEMBL document CHEMBL3813664, “Synthesis and evaluation of biphenyl derivatives as potential downregulators of VEGF protein secretion and telomerase-related gene expressions” (Bioorg Med Chem, 2016).
In brackets after ≈: the same amount, converted by molar mass.

Columns and labels:
[1] = test system: HEK293; experiment: Cytotoxicity against HEK293 cells assessed as reduction in cell growth after 3 days by MTT assay; assay type: cell-based; details: Homo sapiens, HEK293, 72 h
[2] = test system: HT-29; experiment: Cytotoxicity against human HT-29 cells assessed as reduction in cell growth after 3 days by MTT assay; assay type: functional, cell-based; details: HT-29, 72 h
[3] = test system: MCF7; experiment: Cytotoxicity against human MCF7 cells assessed as reduction in cell growth after 3 days by MTT assay; assay type: functional, cell-based; details: MCF7, 72 h
[4] = Therapeutic index, ratio of IC50 for HEK293 cells to IC50 for human MCF7 cells; assay type: cell-based; details: HEK293 cells versus MCF7 cells, read-out: Ratio IC50
[5] = Therapeutic index, ratio of IC50 for HEK293 cells to IC50 for human HT-29 cells; assay type: cell-based; details: HEK293 cells versus HT-29 cells, read-out: Ratio IC50
[6] = test system: HT-29; experiment: Downregulation of VEGFA-165 secretion in human HT-29 cells assessed as protein secretion levels at 3 ug/ml after 72 hrs by ELISA relative to control; assay type: functional
[7] = test system: HT-29; experiment: Downregulation of VEGFA gene expression in human HT-29 cells assessed as gene expression levels at 3 ug/ml after 48 hrs by RT-qPCR analysis relative to control; assay type: functional
[8] = test system: HT-29; experiment: Downregulation of TERT gene expression in human HT-29 cells assessed as gene expression levels at 3 ug/ml after 48 hrs by RT-qPCR analysis relative to control; assay type: functional
[9] = test system: HT-29; experiment: Downregulation of c-Myc gene expression in human HT-29 cells assessed as gene expression levels at 3 ug/ml after 48 hrs by RT-qPCR analysis relative to control; assay type: functional
[10] = test system: HT-29; experiment: Downregulation of VEGFA-165 secretion in human HT-29 cells assessed as protein secretion levels at 15 ug/ml after 72 hrs by ELISA relative to control; assay type: functional
[11] = test system: HT-29; experiment: Downregulation of VEGFA gene expression in human HT-29 cells assessed as gene expression levels at 15 ug/ml after 48 hrs by RT-qPCR analysis relative to control; assay type: functional
[12] = test system: HT-29; experiment: Downregulation of TERT gene expression in human HT-29 cells assessed as gene expression levels at 15 ug/ml after 48 hrs by RT-qPCR analysis relative to control; assay type: functional
[13] = test system: HT-29; experiment: Downregulation of c-Myc gene expression in human HT-29 cells assessed as gene expression levels at 15 ug/ml after 48 hrs by RT-qPCR analysis relative to control; assay type: functional

SMILES | IC50 [1] [µg/mL] | IC50 [2] [µg/mL] | IC50 [3] [µg/mL] | selectivity ratio [4] | selectivity ratio [5] | Activity [6] [%] | Activity [7] [%] | Activity [8] [%] | Activity [9] [%] | Activity [10] [%] | Activity [11] [%] | Activity [12] [%] | Activity [13] [%]
Nc1ccc(-c2ccccc2)cc1 [BIPHENYL-4-AMINE] | > 100 | > 100 | 1.4 (≈ 8.27 µM) | > 69 | – | – | – | – | – | – | – | – | –
Oc1ccc(-c2ccc(O)cc2)cc1 | 5.1 (≈ 27.4 µM) | 13.9 (≈ 74.6 µM) | 17.8 (≈ 95.6 µM) | 0.3 | 0.4 | – | – | – | – | – | – | – | –
Nc1ccccc1-c1ccc(O)cc1 | 50 (≈ 270 µM) | 51 (≈ 275 µM) | 44.3 (≈ 239 µM) | 1.1 | 1 | – | – | – | – | – | – | – | –
Oc1ccc(-c2cccc(O)c2)cc1 | 31 (≈ 166 µM) | 3.4 (≈ 18.3 µM) | > 100 | 9 | 9 | 52 | 35 | 30 | 39 | – | – | – | –
COc1ccc(-c2cccc(N)c2)c(OC)c1 | 29.2 (≈ 127 µM) | 49 (≈ 214 µM) | > 100 | < 0.3 | 0.6 | – | – | – | – | – | – | – | –
Nc1ccccc1-c1ccccc1O | 54.1 (≈ 292 µM) | 44 (≈ 238 µM) | 56 (≈ 302 µM) | 1 | 1.2 | – | – | – | – | – | – | – | –
COc1ccc(-c2cccc(O)c2)cc1OC | 23.1 (≈ 100 µM) | 29 (≈ 126 µM) | 48 (≈ 208 µM) | 0.5 | 0.8 | – | – | – | – | – | – | – | –
COc1ccc(-c2cccc(O)c2)c(OC)c1 | 28 (≈ 122 µM) | 54 (≈ 235 µM) | 50.2 (≈ 218 µM) | 0.6 | 0.5 | – | – | – | – | – | – | – | –
COc1ccccc1-c1ccc(O)cc1 | 44 (≈ 220 µM) | 49 (≈ 245 µM) | 55 (≈ 275 µM) | 0.8 | 0.9 | – | – | – | – | – | – | – | –
COc1ccccc1-c1ccccc1O | 54 (≈ 270 µM) | 2.7 (≈ 13.5 µM) | > 100 | < 0.5 | 20 | 33 | 17 | 3 | 6 | – | – | – | –
COc1ccc(-c2ccccc2O)cc1OC | 23 (≈ 99.9 µM) | > 100 | 55 (≈ 239 µM) | 0.4 | < 0.2 | – | – | – | – | – | – | – | –
COc1ccc(-c2ccccc2O)cc1 | 44 (≈ 220 µM) | 47 (≈ 235 µM) | 42 (≈ 210 µM) | 1 | 0.9 | – | – | – | – | – | – | – | –
COc1ccc(-c2ccccc2)cc1 | 17 (≈ 92.3 µM) | 45 (≈ 244 µM) | > 100 | < 0.2 | 0.4 | – | – | – | – | – | – | – | –
COc1cccc(-c2ccc(O)cc2)c1 | 35 (≈ 175 µM) | 24 (≈ 120 µM) | 41 (≈ 205 µM) | 0.9 | 1.5 | – | – | – | – | 48 | 51 | 35 | 34
Nc1ccc(-c2ccccc2O)cc1 | 31 (≈ 167 µM) | 27.3 (≈ 147 µM) | 52 (≈ 281 µM) | 0.6 | 1.2 | – | – | – | – | – | – | – | –
COc1ccc(-c2cccc(N)c2)cc1OC | 20 (≈ 87.2 µM) | 4 (≈ 17.4 µM) | > 100 | < 0.2 | 5 | 42 | 57 | 90 | 40 | – | – | – | –
COc1ccccc1-c1ccccc1 | 52 (≈ 282 µM) | 51 (≈ 277 µM) | 1.6 (≈ 8.68 µM) | 33 | 1 | – | – | – | – | – | – | – | –
Oc1ccccc1-c1ccccc1 [2-PHENYLPHENOL] | 31.4 (≈ 184 µM) | 55 (≈ 323 µM) | 51 (≈ 300 µM) | 0.6 | 0.6 | – | – | – | – | – | – | – | –
Nc1cccc(-c2ccc(O)cc2)c1 | > 100 | 5.4 (≈ 29.2 µM) | 6.5 (≈ 35.1 µM) | > 15 | > 18 | 55 | 42 | 78 | 39 | – | – | – | –
Oc1cccc(-c2ccccc2)c1 | 25 (≈ 147 µM) | 28 (≈ 165 µM) | 27.4 (≈ 161 µM) | 0.9 | 0.9 | – | – | – | – | – | – | – | –
Nc1ccccc1-c1ccccc1 | 54.9 (≈ 324 µM) | 16 (≈ 94.5 µM) | 2.9 (≈ 17.1 µM) | 19 | 3.3 | – | – | – | – | 91 | 65 | 56 | 53

SMILES | IC50 [1] [µg/mL] | IC50 [2] [µg/mL] | IC50 [3] [µg/mL] | selectivity ratio [4] | selectivity ratio [5] | Activity [6] [%] | Activity [7] [%] | Activity [8] [%] | Activity [9] [%] | Activity [10] [%] | Activity [11] [%] | Activity [12] [%] | Activity [13] [%]
COc1cccc(-c2ccccc2O)c1 | 39 (≈ 195 µM) | 35 (≈ 175 µM) | 43 (≈ 215 µM) | 0.9 | 1.1 | – | – | – | – | – | – | – | –
COc1ccc(-c2ccccc2)cc1OC | 26 (≈ 121 µM) | 41 (≈ 191 µM) | 45 (≈ 210 µM) | 0.6 | 0.6 | – | – | – | – | – | – | – | –
Oc1cccc(-c2ccccc2O)c1 | > 100 | 5.2 (≈ 27.9 µM) | > 100 | – | > 19 | 57 | 10 | 18 | 87 | – | – | – | –
Nc1ccccc1-c1cccc(O)c1 | 10.5 (≈ 56.7 µM) | 9.2 (≈ 49.7 µM) | 16 (≈ 86.4 µM) | 0.7 | 1.1 | 48 | 54 | 77 | 38 | – | – | – | –
COc1ccc(-c2ccccc2N)cc1OC | 49.9 (≈ 218 µM) | 15 (≈ 65.4 µM) | 18 (≈ 78.5 µM) | 3 | 3.3 | – | – | – | – | 56 | 61 | 86 | 50
Nc1ccc(-c2ccc(O)cc2)cc1 | 62 (≈ 335 µM) | 56 (≈ 302 µM) | 49.9 (≈ 269 µM) | 1.2 | 1.1 | – | – | – | – | – | – | – | –
COc1ccc(-c2ccc(N)cc2)c(OC)c1 | 22 (≈ 96 µM) | 2.2 (≈ 9.6 µM) | > 100 | < 0.2 | 10 | 51 | 41 | 40 | 39 | – | – | – | –
Oc1ccccc1-c1ccccc1O | 57 (≈ 306 µM) | 2.5 (≈ 13.4 µM) | 60 (≈ 322 µM) | 1 | 23 | 57 | 23 | 3 | 18 | – | – | – | –
COc1ccccc1-c1cccc(O)c1 | 50 (≈ 250 µM) | 22 (≈ 110 µM) | 44 (≈ 220 µM) | 1.1 | 2.3 | – | – | – | – | 31 | 76 | 62 | 50
COc1ccc(-c2cccc(O)c2)cc1 | 14.6 (≈ 72.9 µM) | 72 (≈ 360 µM) | 48 (≈ 240 µM) | 0.3 | 0.2 | – | – | – | – | – | – | – | –
COc1ccc(-c2ccccc2)c(OC)c1 | 27 (≈ 126 µM) | 55.2 (≈ 258 µM) | > 100 | < 0.3 | 0.5 | – | – | – | – | – | – | – | –
Nc1cccc(-c2ccccc2)c1 | 54 (≈ 319 µM) | 42 (≈ 248 µM) | 60 (≈ 355 µM) | 0.9 | 1.3 | – | – | – | – | – | – | – | –
Nc1cccc(-c2ccccc2O)c1 | 47 (≈ 254 µM) | 49 (≈ 265 µM) | 28 (≈ 151 µM) | 1.7 | 1 | – | – | – | – | – | – | – | –
Nc1ccc(-c2cccc(O)c2)cc1 | 55 (≈ 297 µM) | 49.3 (≈ 266 µM) | > 100 | < 0.6 | 1.1 | – | – | – | – | – | – | – | –
COc1ccc(-c2ccc(N)cc2)cc1OC | 23 (≈ 100 µM) | 2 (≈ 8.72 µM) | 5.5 (≈ 24 µM) | 4 | 12 | 48 | 48 | 100 | 92 | – | – | – | –
COc1ccc(-c2ccc(O)cc2)cc1 | 2 (≈ 9.99 µM) | > 100 | 53 (≈ 265 µM) | < 0.1 | < 0.1 | – | – | – | – | – | – | – | –
Oc1ccc(-c2ccccc2O)cc1 | 54 (≈ 290 µM) | 1.4 (≈ 7.52 µM) | > 100 | – | 38 | 62 | 16 | 11 | 11 | – | – | – | –
COc1ccc(-c2ccccc2N)c(OC)c1 | > 100 | 56 (≈ 244 µM) | 56 (≈ 244 µM) | > 2 | > 2 | – | – | – | – | – | – | – | –
Nc1cccc(-c2cccc(O)c2)c1 | 50.1 (≈ 270 µM) | 54 (≈ 292 µM) | 99 (≈ 534 µM) | 0.5 | 0.9 | – | – | – | – | – | – | – | –
COc1ccc(-c2ccc(O)cc2)c(OC)c1 | > 100 | 21 (≈ 91.2 µM) | 47 (≈ 204 µM) | > 2 | > 5 | – | – | – | – | 35 | 37 | 56 | 87
Oc1cccc(-c2cccc(O)c2)c1 | 68 (≈ 365 µM) | 2.5 (≈ 13.4 µM) | 51.6 (≈ 277 µM) | 1.3 | 28 | 50 | 5 | 29 | 16 | – | – | – | –
